# Target: IGF1R Ba/F3 (Homo sapiens, UniProt P08069)
# Assay: Ba/F3 Cell Viability Inhibition Assay (Tel-TK transformed Ba/F3 lines)
# Type: cell-based, murine
# Set-up: the printed alternative
# Settings: Tel-TK (IGF1R) transformed Ba/F3 cells, 48 hours incubation, cell viability (Britelite luminescence)
# From the text: Ba/F3 is a murine IL-3-dependent pro-B lymphoma cell line. Parental Ba/F3 cells are used to generate a panel of sublines whose proliferation and survival is rendered IL-3-independent by stable transduction with individual tyrosine kinases activated by fusion with the amino-terminal portion of TEL (amino acid 1-375) or BCR. In order to generate Ba/F3 cell lines transformed by Tel-Tyrosine Kinase (TK) fusions, parental Ba/F3 cells are infected with a retrovirus harboring each TEL-fusion kinase and subjected to puromycin selection and IL-3 withdrawal to obtain IL-3-independent, transformed Ba/F3 cells.
# Each transformed Ba/F3 cells are cultured in RPMI-1640 media (Gibco Cat #11875093, Carlsbad, Calif.) supplemented with 10% FBS (Hyclone Cat #SV30014.03, Logan, Utah), 4.5 g/L glucose (Sigma #G5400, St.Louis, Mo.), 1.5 g/L sodium bicarbonate (Biowhittaker #17-613E, Walkersville, Md.) and Pen/Strep (Gibco #10378-016, Carlsbad, Calif.). Cells are splitted twice weekly.
# The potency of test compounds against various Tel-TK transformed Ba/F3 lines is determined as follows. Exponentially growing BaF3 Tel-TK cells are diluted in fresh medium to 75,000 cells/mL and seeded into 384-well plates (3750 cells/well) at 50 μL/well using a gill liquid dispenser (BioTek, Winooski, Vt., USA). Duplicate plates are run for each cell line. Test and control compounds are serially diluted with DMSO and arrayed in a polypropylene 384-well plate. 50 nL of compound is transferred into the assay plates using a pin-transfer device, and the plates are incubated at 37° C. (5% CO2) for 48 hours. 25 μL Britelite (Perkin Elmer) is added and luminescence is quantified using Analyst GT (Molecular Devices). Custom curve-fitting software is used to produce a logistic fit of percent cell viability as a function of the logarithm of inhibitor concentration. The IC50 is interpolated as the concentration of compound needed to reduce cell viability to 50% of a DMSO control. Parental Ba/F3 cells that are maintained and cultured in presence of IL-3 (1 ng/ml in final) are diluted in fresh medium containing IL-3 (1 ng/ml in final) to 75,000 cells/mL following the same procedure as described above.
# Sequence of IGF1R Ba/F3 (P08069 999-1274 limits assumed): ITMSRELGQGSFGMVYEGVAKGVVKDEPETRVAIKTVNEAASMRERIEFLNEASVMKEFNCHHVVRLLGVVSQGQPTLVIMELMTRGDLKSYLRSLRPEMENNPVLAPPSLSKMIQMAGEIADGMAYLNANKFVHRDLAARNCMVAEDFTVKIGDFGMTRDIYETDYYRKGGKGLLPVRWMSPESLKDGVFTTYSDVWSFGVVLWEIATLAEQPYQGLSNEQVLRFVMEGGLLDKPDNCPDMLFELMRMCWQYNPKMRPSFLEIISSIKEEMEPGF
row,SMILES,IC50
1,"Cc1cc(Nc2nc(Nc3cc4c(cc3F)CN(C3CCNCC3)C4=O)ncc2Cl)no1 [Compound 80, 6-(5-chloro-4-(5-methylisoxazol-3-ylamino)pyrimidin-2-ylamino)-5-fluoro-2-(piperidin-4-yl)isoindolin-1-one]",2.65 µM
2,"Cc1cc(Nc2nc(Nc3cc(C)c([C@H]4CC[C@H](N5CCOCC5)CC4)cc3F)ncc2Cl)n[nH]1 [Compound 50, Trans-5-chloro-N2-(2-fluoro-5-methyl-4-(4-morpholinocyclohexyl)phenyl)-N4-(5-methyl-1H-pyrazol-3-yl)pyrimidine-2,4-diamine]",0.031 µM
3,"Cc1cc(Nc2nc(Nc3cc(C)c(-c4ccc5c(c4)CCNC5)cc3C)ncc2Cl)n[nH]1 [Compound 74, 5-chloro-N2-(2,5-dimethyl-4-(1,2,3,4-tetrahydroisoquinolin-6-yl)phenyl)-N4-(5-methyl-1H-pyrazol-3-yl)pyrimidine-2,4-diamine]",0.087 µM
4,"Cc1cc(Nc2nc(Nc3cc(C)c(-c4ccc(O)nc4)cc3F)ncc2Cl)n[nH]1 [Compound 8, 5-(4-(5-chloro-4-(5-methyl-1H-pyrazol-3-ylamino)pyrimidin-2-ylamino)-5-fluoro-2-methylphenyl)pyridin-2-ol]",0.055 µM
5,"Cc1cc(Nc2nc(Nc3cc(C)c([C@H]4CC[C@@H](N5CCCCC5)CC4)cc3C)ncc2Cl)n[nH]1 [Compound 43, Cis-5-chloro-N2-(2,5-dimethyl-4-(4-(pipcridin-1-yl)cyclohexyl)phenyl)-N4-(5-methyl-1H-pyrazol-3-yl)pyrimidine-2,4-diamine]",0.008 µM
6,"Cc1cc(Nc2nc(Nc3cc(C)c([C@H]4CC[C@H](N5C[C@H](O)[C@@H](O)C5)CC4)cc3F)ncc2C(F)(F)F)n[nH]1 [Compound 69, (3S,4S)-1-((trans)-4-(5-fluoro-2-methyl-4-(4-(5-methyl-1H-pyrazol-3-ylamino)-5-(trifluoromethyl)pyrimidin-2-ylamino)phenyl)cyclohexyl)pyrrolidine-3,4-diol]",0.302 µM
7,"Cc1cc(Nc2nc(Nc3cc(C)c([C@H]4CC[C@@H](NC5CC5)CC4)cc3C)ncc2Cl)n[nH]1 [Compound 47, Cis-5-chloro-N2-(4-(4-(cyclopropylamino)cyclohexyl)-2,5-dimethylphenyl)-N4-(5-methyl-1H-pyrazol-3-yl)pyrimidine-2,4-diamine]",0.017 µM
8,"Cc1cc(Nc2nc(Nc3cc4c(cc3F)CN(C3CCNCC3)C4=O)ncc2Cl)n[nH]1 [Compound 79, 6-(5-chloro-4-(5-methyl-1H-pyrazol-3-ylamino)pyrimidin-2-ylamino)-5-fluoro-2-(piperidin-4-yl)isoindolin-1-one]",6.4 µM
9,"Cc1cc(Nc2nc(Nc3ccc(C4CCN(CC(N)=O)CC4)c4ccncc34)ncc2Cl)n[nH]1 [Compound 77, 2-(4-(8-(5-chloro-4-(5-methyl-1H-pyrazol-3-ylamino)pyrimidin-2-ylamino)isoquinolin-5-yl)piperidin-1-yl)acetamide]",3.3 µM
10,"Cc1cc(Nc2nc(Nc3cc(C)c([C@H]4CC[C@@H](N5CCNCC5)CC4)cc3F)ncc2Cl)n[nH]1 [Compound 58, 5-chloro-N2-(2-fluoro-5-methyl-4-((cis)-4-(piperazin-1-yl)cyclohexyl)phenyl)-N4-(5-methyl-1H-pyrazol-3-yl)pyrimidine-2,4-diamine]",0.017 µM
11,"C/C(=N\OCCN(C)C)c1cc(C)c(Nc2ncc(Cl)c(Nc3cc(C)[nH]n3)n2)cc1C [Compound 35, 1-(4-(5-chloro-4-(5-methyl-1H-pyrazol-3-ylamino)pyrimidin-2-ylamino)-2,5-dimethylphenyl)ethanone O-2-(dimethylamino)ethyl oxime]",0.121 µM
12,"Cc1cc(Nc2nc(Nc3cc(C)c(-c4ccc5c(c4)CCN(C)C5)cc3C)ncc2Cl)n[nH]1 [Compound 75, 5-chloro-N2-(2,5-dimethyl-4-(2-methyl-1,2,3,4-tetrahydroisoquinolin-6-yl)phenyl)-N4-(5-methyl-1H-pyrazol-3-yl)pyrimidine-2,4-diamine]",0.054 µM
13,"Cc1cc(Nc2nc(Nc3cc(C)c([C@H]4CC[C@@H](O)CC4)cc3F)ncc2Cl)n[nH]1 [Compound 73, Cis-4-(4-(5-chloro-4-(5-methyl-1H-pyrazol-3-ylamino)pyrimidin-2-ylamino)-5-fluoro-2-methylphenyl)cyclohexanol]",0.032 µM
14,"O=C1NCc2cc(F)c(Nc3ncc(Cl)c(Nc4cc(C5CC5)[nH]n4)n3)cc21 [Compound 81, 6-(5-chloro-4-(5-cyclopropyl-1H-pyrazol-3-ylamino)pyrimidin-2-ylamino)-5-fluoroisoindolin-1-one]",2.3 µM
15,"Cc1cc(Nc2nc(Nc3cc(C)c(-c4ncc[nH]4)cc3F)ncc2Cl)n[nH]1 [Compound 19, 5-chloro-N2-(2-fluoro-4-(1H-imidazol-2-yl)-5-methylphenyl)-N4-(5-methyl-1H-pyrazol-3-yl)pyrimidine-2,4-diamine]",0.288 µM
16,"Cc1cc(-c2cc(F)c(Nc3ncc(Cl)c(Nc4cc(C)[nH]n4)n3)cc2C)ccn1 [Compound 9, 5-chloro-N2-(2-fluoro-5-methyl-4-(2-methylpyridin-4-yl)phenyl)-N4-(5-methyl-1H-pyrazol-3-yl)pyrimidine-2,4-diamine]",0.094 µM
17,"C/C(=N\O)c1cc(C)c(Nc2ncc(Cl)c(Nc3cc(C)[nH]n3)n2)cc1C [Compound 29, 1-(4-(5-chloro-4-(5-methyl-1H-pyrazol-3-ylamino)pyrimidin-2-ylamino)-2,5-dimethylphenyl)ethanone oxime]",0.051 µM
18,"Cc1cc(-c2cc(C)c(Nc3ncc(Cl)c(Nc4cc(C)[nH]n4)n3)cc2C)on1 [Compound 18, 5-chloro-N2-(2,5-dimethyl-4-(3-methylisoxazol-5-yl)phenyl)-N4-(5-methyl-1H-pyrazol-3-yl)pyrimidine-2,4-diamine]",0.276 µM
19,CCN1CCc2ccc(Nc3ncc(Cl)c(Nc4cc(C)[nH]n4)n3)cc2CC1 [Compound 89],0.088 µM
20,"Cc1cc(Nc2nc(Nc3cc(F)c(-c4cnn(C)c4)cc3C)ncc2Cl)n[nH]1 [Compound 27, 5-chloro-N2-(5-fluoro-2-methyl-4-(1-methyl-1H-pyrazol-4-yl)phenyl)-N4-(5-methyl-1H-pyrazol-3-yl)pyrimidine-2,4-diamine]",0.549 µM
21,"Cc1cc(Nc2nc(Nc3cc(C)c([C@H]4CC[C@H](N5CCOCC5)CC4)cc3F)ncc2C(F)(F)F)n[nH]1 [Compound 65, N2-(2-fluoro-5-methyl-4-((trans)-4-morpholinocyclohexyl)phenyl)-N4-(5-methyl-1H-pyrazol-3-yl)-5-(trifluoromethyl)pyrimidine-2,4-diamine]",0.032 µM
22,"Cc1cc(Nc2nc(Nc3ccc(C4CCN(CC(N)=O)CC4)c4ccccc34)ncc2Cl)n[nH]1 [Compound 86, 2-(4-(4-(5-chloro-4-(5-methyl-1H-pyrazol-3-ylamino)pyrimidin-2-ylamino)naphthalene-1-yl)piperidin-1-yl)acetamide]",0.107 µM
23,"Cc1cc(Nc2nc(Nc3cc(C)c(C(=O)N4CCOCC4)cc3C)ncc2Cl)n[nH]1 [Compound 32, (4-(5-chloro-4-(5-methyl-1H-pyrazol-3-ylamino)pyrimidin-2-ylamino)-2,5-dimethylphenyl)(morpholino)methanone]",0.451 µM
24,"Cc1cc(Nc2nc(Nc3cc(C)c(-c4ccncc4)cc3F)ncc2Cl)n[nH]1 [Compound 2, 5-chloro-N2-(2-fluoro-5-methyl-4-(pyridin-4-yl)phenyl)-N4-(5-methyl-1H-pyrazol-3-yl)pyrimidine-2,4-diamine]",0.103 µM
25,"Cc1cc(Nc2nc(Nc3cc(C)c([C@H]4CC[C@H](N5CC[C@H](O)C5)CC4)cc3F)ncc2Cl)n[nH]1 [Compound 55, (S)-1-((Trans)-4-(4-(5-chloro-4-(5-methyl-1H-pyrazol-3-ylamino)pyrimidin-2-ylamino)-5-fluoro-2-methylphenyl)cyclohexyl)pyrrolidin-3-ol]",0.032 µM
26,"Cc1cc(Nc2nc(Nc3cc(C)c(-c4cnn(C)c4)cc3F)ncc2Cl)n[nH]1 [Compound 1, 5-chloro-N2-(2-fluoro-5-methyl-4-(1-methyl-1H-pyrazol-4-yl)phenyl)-N4-(5-methyl-1H-pyrazol-3-yl)pyrimidine-2,4-diamine]",0.067 µM
27,"Cc1cc(Nc2nc(Nc3cc(C)c([C@H]4CC[C@H](N5C[C@@H](O)[C@H](O)C5)CC4)cc3F)ncc2C(F)(F)F)n[nH]1 [Compound 70, (3R,4R)-1-((trans)-4-(5-fluoro-2-methyl-4-(4-(5-methyl-1H-pyrazol-3-ylamino)-5-(trifluoromethyl)pyrimidin-2-ylamino)phenyl)cyclohexyl)pyrrolidine-3,4-diol]",0.248 µM

# — patent US8445505B2 (IRM LLC, priority 2008, dated 2013)
